Test results reported in US12414935B2, “Compounds and methods for the treatment of parasitic diseases” (WASHINGTON UNIVERSITY, priority 2019, dated 2025).

Tests used:
[1] = system: C. parvum; test: C. parvum in vitro EC50 assay in ALI culture; type: cell-based; settings: Cryptosporidium parvum, 48 hr, Mean +/- S.D., N = 2, 5 pt curve
Experimental: (§1) In vitro assays measuring the EC50 value for C. parvum infection may be run to determine the efficacy of the compounds. For example, human ileocecal adenocarcinoma (HCT-8) cells can be obtained from ATCC and maintained in T-75 tissue culture flasks with RPMI 1640 medium with HEPES, sodium pyruvate (1 mM), and L-glutamine (ATCC) supplemented with 10% horse serum (ATCC) and 120 U/ml penicillin and 120 μg/ml streptomycin. Cells can be plated into 384-well, tissue culture-treated, black-walled, clearbottom microwell plates (BD Falcon) at a density of 8,850 cells/well and allowed to grow to confluence. The cells may then be inoculated with 5.5×10^3 primed C. parvum oocysts (Bunchgrass Farms, Deary, ID) suspended in inoculation medium (RPMI 1640 without horse serum). Oocysts may be primed for excystation by following a previously described protocol (J. Eukaryot. Microbiol. 46:56S-57S). Briefly, oocysts can be treated for 10 min with 10 mM HCl at 37° C., centrifuged, and treated with a 2 mM solution of sodium taurocholate (Sigma-Aldrich) in phosphate-buffered saline (PBS) with Ca^2+ and Mg^2+. The suspension can be incubated for 10 min at 16° C. and then diluted in inoculation medium and added to each well. Infected cells are incubated at 37° C. for 3 h, at which point an equal volume of growth medium containing 20% horse serum (total serum concentration of 10%) is produced. Compounds are diluted and assayed at fixed doses (e.g., 0.12, 0.37, 1.1, 3.3, and 10 μM, with each concentration, n=14) for the generation of EC50 curves. In the case of final EC50 curves, three wells are left uninfected but treated with each of the corresponding concentrations of the compound to assess for background staining. All curves are generated using the log[inhibitor] versus response variable slope equation in GraphPad Prism, with the bottom constraint set equal to 0.
(§2) Such assays were prepared on HTC-8 cells and ALI. Table 2 illustrates measured EC50 at various time points.
Briefly, i3T3 cells were plated in CM media. Spheroids were plated on the cells. […]

[2] = system: C. parvum; test: C. parvum in vitro EC50 assay in HCT-8 cells; type: cell-based; settings: Cryptosporidium parvum, HCT8 cells, 24 hr, Mean +/- S.D., N = 3, 9 pt curve
Experimental: as §1, §2

EC50 [1] | EC50 [2] | Structure (SMILES)
28 ± 2 nM | 11 ± 3 nM | COc1ccc(NC(=O)N2CCCCN3[C@H](CN(C)S(C)(=O)=O)[C@H](c4ccc(C#Cc5ccccc5)cc4)[C@@H]3C2)cc1 [Compound 1, (8R,9R,10S)-N-(4-methoxyphenyl)-10-((N-methylmethylsulfonamido)methyl)-9-(4-(phenylethynyl)phenyl)-1,6-diazabicyclo[6.2.0]decane-6-carboxamide]
113 ± 15 nM | 33 ± 9 nM | COc1ccc(NC(=O)N2CCCCN3[C@H](CN(C)C)[C@H](c4ccc(C#Cc5ccccc5)cc4)[C@@H]3C2)cc1 [Compound 2, (8R,9S,10S)-10-((dimethylamino)methyl)-N-(4-methoxyphenyl)-9-(4-(phenylethynyl)phenyl)-1,6-diazabicyclo[6.2.0]decane-6-carboxamide]
25900 ± 4140 nM | 2190 ± 378 nM | CC(=O)Oc1ccccc1C(=O)Nc1ncc([N+](=O)[O-])s1 [Nitazoxanide, reference compound]
